From article PMC9133015 (Nature Communications, 2022)
“And” between values parts separate entries of the source, which are not always exact repeats. Equal values may be shown once.

Legend:
[1] = test system: DU145 cells; test: Cell growth assay (5-day course); assay type: cell-based, human; details: DU145, 2 μM
[2] = test system: PC-3 cells; test: Cell growth assay (5-day course); assay type: cell-based, human; details: PC-3, 4 µM; for Relative proliferation rate / optical density: replicates
[3] = test system: 22Rv1 cells; test: Cell growth assay (5-day course); assay type: cell-based, human; details: 22Rv1, 0.5 µM
[4] = test system: RWPE-1 cells; test: Anti-proliferation activity assay (CCK8, 72 h); assay type: cell-based; details: RWPE1; for Relative proliferation rate (%) / optical density: replicates
[5] = test system: DU145 cells; test: Apoptosis assay (Annexin V-APC/PI flow cytometry); assay type: cell-based, human; details: DU145, 2 μM, replicates
[6] = test system: PC-3 cells; test: Apoptosis assay (Annexin V-APC/PI flow cytometry); assay type: cell-based, human; details: PC-3; 2 µM; replicates
[7] = test system: 22Rv1 cells; test: Apoptosis assay (Annexin V-APC/PI flow cytometry); assay type: cell-based, human; details: 22Rv1, 0.5 μM, replicates
[8] = test system: PC-3 xenograft; test: In vivo antitumor activity, PC-3 xenograft mouse model; set-up: species or system BALB/c nude mice; details: Palbociclib group; for tumor volume (Figure S10a): in mm³ (unit assumed)
[9] = test system: DU145 cells; test: Migration assay (transwell); assay type: cell-based, human; details: DU145, 2 μM, replicates
[10] = test system: PC-3 cells; test: Migration assay (transwell); assay type: cell-based, human; details: PC-3; 2 µM; replicates
[11] = test system: 22Rv1 cells; test: Migration assay (transwell); assay type: cell-based, human; details: 22Rv1, 0.5 μM, replicates
[12] = test system: PC-3 cells; test: Colony formation assay; assay type: cell-based, human; details: 2 µM, replicates

## CC(=O)c1c(C)c2cnc(Nc3ccc(N4CCNCC4)cn3)nc2n(C2CCCC2)c1=O [palbociclib]
[1]; day 1
  Relative proliferation rate mean: 1.596
[1]; day 2
  Relative proliferation rate mean: 2.367
[1]; day 3
  Relative proliferation rate mean: 5.211
[1]; day 4
  Relative proliferation rate mean: 6.975
[2]; day 0
  Relative proliferation rate mean: 1
  Relative proliferation rate: 1
  optical density: 0.261
[2]; day 1
  Relative proliferation rate mean: 1.157
  Relative proliferation rate: 1.143 and 1.182 and 1.147
  optical density: 0.298 and 0.308 and 0.299
[2]; day 2
  Relative proliferation rate mean: 1.563
  Relative proliferation rate: 1.569 and 1.565 and 1.554
  optical density: 0.409 and 0.408 and 0.405
[2]; day 3
  Relative proliferation rate mean: 2.215
  Relative proliferation rate: 2.206 and 2.244 and 2.194
  optical density: 0.575 and 0.585 and 0.572
[2]; day 4
  Relative proliferation rate mean: 4.39
  Relative proliferation rate: 4.419 and 4.354 and 4.396
  optical density: 1.152 and 1.135 and 1.146
[3]; day 1
  Relative proliferation rate mean: 1.1416
[3]; day 2
  Relative proliferation rate mean: 1.363
[3]; day 3
  Relative proliferation rate mean: 1.755
[3]; day 4
  Relative proliferation rate mean: 2.003
[4]; 0.078 uM
  Relative proliferation rate (%) mean: 4.3459%
  Relative proliferation rate (%): 2.8348% and 5.899% and 4.304%
  optical density: 0.994 and 1.005 and 1.045
[4]; 0.3125 uM
  Relative proliferation rate (%) mean: 4.485%
  Relative proliferation rate (%): 1.76% and 7.21% and 4.487%
  optical density: 1.005 and 0.991 and 1.043
[4]; 1.25 uM
  Relative proliferation rate (%) mean: 11.7464%
  Relative proliferation rate (%): 7.038% and 16.4794% and 11.7216%
  optical density: 0.951 and 0.892 and 0.964
[4]; 5 uM
  Relative proliferation rate (%) mean: 24.554%
  Relative proliferation rate (%): 19.1593% and 29.8689% and 24.6337%
  optical density: 0.827 and 0.749 and 0.823
[4]; 20 uM
  Relative proliferation rate (%) mean: 55.5924%
  Relative proliferation rate (%): 50.0489% and 61.1423% and 55.5861%
  optical density: 0.511 and 0.415 and 0.485
[4]; 80 uM
  Relative proliferation rate (%) mean: 75.0851%
  Relative proliferation rate (%): 68.3284% and 81.8352% and 75.0916%
  optical density: 0.324 and 0.194 and 0.272
[5]
  Apoptosis (%): 16.25% and 14.39% and 12.36%
[6]
  Apoptosis (%): 13.98% and 14.78% and 15.2%
[7]
  Apoptosis (%): 5.82% and 6.41% and 7.27%
[8]; day 1, individual mice, in g (unit assumed)
  body weight (Figure S10b): 20.3 and 18.7 and 20.4 and 19.9 and 20.5 and 20.1 and 19.3 and 19.6
[8]; day 1, individual mice
  tumor volume (Figure S10a): 71.756 and 85.3384 and 76.4514 and 97.6139 and 96.2115 and 81.8398 and 86.3514 and 80.8996
[8]; day 3, individual mice
  body weight (Figure S10b): 20.6 (2×) and 19.9 (2×) and 20.3 (2×) and 20.4 and 19.5
  tumor volume (Figure S10a): 100.82 and 125.949 and 118.537 and 171.398 and 182.064 and 137.067 and 104.176 and 152.65
[8]; day 5, individual mice, in g (unit assumed)
  body weight (Figure S10b): 20.8 and 20.1 and 20.9 and 20.5 and 20.7 and 20.6 and 19.4 and 20.3
[8]; day 5, individual mice
  tumor volume (Figure S10a): 153.25 and 178.1 and 171.863 and 263.764 and 233.187 and 184.767 and 136.023 and 212
[8]; day 7, individual mice
  body weight (Figure S10b): 21.1 (2×) and 20.4 (3×) and 20.6 and 20.9 and 19.6
  tumor volume (Figure S10a): 216.949 and 236.787 and 227.898 and 326.971 and 317.909 and 235.081 and 192.895 and 301.873
[8]; day 9, individual mice
  body weight (Figure S10b): 21.3 and 20.2 and 21.1 and 20.9 (2×) and 21.2 and 20.1 and 19.8
  tumor volume (Figure S10a): 326.253 and 371.781 and 295.973 and 465.763 and 471.469 and 352.991 and 279.054 and 463.034
[8]; day 11, individual mice
  body weight (Figure S10b): 21 and 20.5 and 21.4 and 21.2 and 21.5 (2×) and 20.3 and 20.1
  tumor volume (Figure S10a): 372.859 and 454.695 and 359.079 and 528.072 and 529.867 and 450.398 and 332.776 and 546.405
[8]; day 13, individual mice, in g (unit assumed)
  body weight (Figure S10b): 21.3 and 20.8 and 21.6 and 21.5 and 22 and 20.7 and 20.4 and 21.8
[8]; day 13, individual mice
  tumor volume (Figure S10a): 420.513 and 508.608 and 384.455 and 605.279 and 564.127 and 444.148 and 375.063 and 606.531
[8]; day 15, individual mice
  body weight (Figure S10b): 21.1 and 20.8 and 21.3 and 21.6 and 22.2 (2×) and 20.3 and 20.7
  tumor volume (Figure S10a): 457.463 and 542.009 and 415.332 and 636.893 and 637.934 and 467.888 and 410.165 and 646.315
[8]; day 17, individual mice, in g (unit assumed)
  body weight (Figure S10b): 21.5 and 21.1 and 21.7 and 22 and 22.3 and 20.6 and 21 and 22.4
[8]; day 17, individual mice
  tumor volume (Figure S10a): 524.733 and 575.217 and 457.759 and 764.115 and 735.045 and 549.485 and 474.267 and 700.215
[8]; day 19, individual mice, in g (unit assumed)
  body weight (Figure S10b): 21.8 and 21.4 and 22 and 22.2 and 22.5 and 20.9 and 21.1 and 22.7
[8]; day 19, individual mice
  tumor volume (Figure S10a): 535.372 and 736.543 and 494.255 and 792.24 and 789.87 and 530.997 and 470.291 and 757.507
[8]; day 21, individual mice
  body weight (Figure S10b): 22.2 (2×) and 21.8 and 22.6 and 23 and 21.2 and 21.5 and 22.9
  tumor volume (Figure S10a): 606.966 and 810.199 and 550.471 and 875.109 and 842.441 and 533.366 and 544.597 and 821.393
[8]; day 23, individual mice, in g (unit assumed)
  body weight (Figure S10b): 22.4 and 21.9 and 22.5 and 22.9 and 23.5 and 21.6 and 21.7 and 23.3
[8]; day 23, individual mice
  tumor volume (Figure S10a): 636.352 and 826.869 and 562.019 and 936.064 and 895.067 and 564.812 and 586.01 and 861.421
[8]; day 25, individual mice, in g (unit assumed)
  body weight (Figure S10b): 22.7 and 22.2 and 22.8 and 23.3
[8]; day 25, individual mice
  tumor volume (Figure S10a): 672.525 and 833.997 and 554.501 and 942.419
[8]; individual mice, in g (unit assumed)
  tumor weight (Figure S10c): 0.86 and 0.74 and 1.05 and 0.97 and 0.73 and 0.85 and 0.69 and 0.92
[9]
  Cell migration (cell number): 4289 cell number and 4310 cell number and 4198 cell number
[10]
  Cell migration (cell number): 267 cell number and 257 cell number and 249 cell number
[11]
  Cell migration (cell number): 1008 cell number and 1108 cell number and 1169 cell number
[12]
  Colony formation (cell number): 78 cell number and 83 cell number and 81 cell number
